Test results taken from ChEMBL document CHEMBL1240349, “Influence of tigecycline on expression of virulence factors in biofilm-associated cells of methicillin-resistant Staphylococcus aureus” (2010).

Tests used:
Assay type in all cases: functional
Staphylococcus aureus [1] = assay: Decrease in clpC gene expression in biofilm-associated cells of epidemic methicillin-resistant Staphylococcus aureus isolate 16 at 4 times MIC incubated for 1 hr by whole genome microarray relative to untreated control
Staphylococcus aureus [2] = assay: Increase in mnhG expression in biofilm-associated cells of epidemic methicillin-resistant Staphylococcus aureus isolate 16-1 at 4 times MIC incubated for 1 hr by RT-PCR relative to untreated control
Staphylococcus aureus [3] = assay: Increase in infC gene expression in biofilm-associated cells of epidemic methicillin-resistant Staphylococcus aureus isolate 16 at 4 times MIC incubated for 1 hr by whole genome microarray relative to untreated control
Staphylococcus aureus [4] = assay: Decrease in fnbB expression in biofilm-associated cells of epidemic methicillin-resistant Staphylococcus aureus isolate 16-2 at 4 times MIC incubated for 1 hr by RT-PCR relative to untreated control
Staphylococcus aureus [5] = assay: Increase in sarA gene expression in biofilm-associated cells of epidemic methicillin-resistant Staphylococcus aureus isolate 16 at 4 times MIC incubated for 1 hr by whole genome microarray relative to untreated control
Staphylococcus aureus [6] = assay: Decrease in mnhG expression in biofilm-associated cells of epidemic methicillin-resistant Staphylococcus aureus isolate 16-2 at 4 times MIC incubated for 1 hr by RT-PCR relative to untreated control
Staphylococcus aureus [7] = assay: Increase in mnhF gene expression in biofilm-associated cells of epidemic methicillin-resistant Staphylococcus aureus isolate 16 at 4 times MIC incubated for 1 hr by whole genome microarray relative to untreated control
Staphylococcus aureus [8] = assay: Increase in cspB gene expression in biofilm-associated cells of epidemic methicillin-resistant Staphylococcus aureus isolate 16 at 4 times MIC incubated for 1 hr by whole genome microarray relative to untreated control
Staphylococcus aureus [9] = assay: Decrease in sdrD gene expression in biofilm-associated cells of epidemic methicillin-resistant Staphylococcus aureus isolate 16 at 4 times MIC incubated for 1 hr by whole genome microarray relative to untreated control
Staphylococcus aureus [10] = assay: Increase in rplC gene expression in biofilm-associated cells of epidemic methicillin-resistant Staphylococcus aureus isolate 16 at 4 times MIC incubated for 1 hr by whole genome microarray relative to untreated control
Staphylococcus aureus [11] = assay: Decrease in capC expression in biofilm-associated cells of epidemic methicillin-resistant Staphylococcus aureus isolate 16-2 at 4 times MIC incubated for 1 hr by RT-PCR relative to untreated control
Staphylococcus aureus [12] = assay: Decrease in mecI gene expression in biofilm-associated cells of epidemic methicillin-resistant Staphylococcus aureus isolate 16 at 4 times MIC incubated for 1 hr by whole genome microarray relative to untreated control
Staphylococcus aureus [13] = assay: Decrease in clpB gene expression in biofilm-associated cells of epidemic methicillin-resistant Staphylococcus aureus isolate 16 at 4 times MIC incubated for 1 hr by whole genome microarray relative to untreated control
Staphylococcus aureus [14] = assay: Increase in fnbB expression in biofilm-associated cells of epidemic methicillin-resistant Staphylococcus aureus isolate 16-1 at 4 times MIC incubated for 1 hr by RT-PCR relative to untreated control
Staphylococcus aureus [15] = assay: Increase in rplJ gene expression in biofilm-associated cells of epidemic methicillin-resistant Staphylococcus aureus isolate 16 at 4 times MIC incubated for 1 hr by whole genome microarray relative to untreated control
Staphylococcus aureus [16] = assay: Increase in pbp2 gene expression in biofilm-associated cells of epidemic methicillin-resistant Staphylococcus aureus isolate 16 at 4 times MIC incubated for 1 hr by whole genome microarray relative to untreated control
Staphylococcus aureus [17] = assay: Increase in isaA expression in biofilm-associated cells of epidemic methicillin-resistant Staphylococcus aureus isolate 15 at 4 times MIC incubated for 1 hr by RT-PCR relative to untreated control
Staphylococcus aureus [18] = assay: Decrease in clpC expression in biofilm-associated cells of epidemic methicillin-resistant Staphylococcus aureus isolate 16-1 at 4 times MIC incubated for 1 hr by RT-PCR relative to untreated control
Staphylococcus aureus [19] = assay: Decrease in capC gene expression in biofilm-associated cells of epidemic methicillin-resistant Staphylococcus aureus isolate 16 at 4 times MIC incubated for 1 hr by whole genome microarray relative to untreated control
Staphylococcus aureus [20] = assay: Increase in topA gene expression in biofilm-associated cells of epidemic methicillin-resistant Staphylococcus aureus isolate 16 at 4 times MIC incubated for 1 hr by whole genome microarray relative to untreated control
Staphylococcus aureus [21] = assay: Decrease in polA gene expression in biofilm-associated cells of epidemic methicillin-resistant Staphylococcus aureus isolate 16 at 4 times MIC incubated for 1 hr by whole genome microarray relative to untreated control
Staphylococcus aureus [22] = assay: Decrease in capF gene expression in biofilm-associated cells of epidemic methicillin-resistant Staphylococcus aureus isolate 16 at 4 times MIC incubated for 1 hr by whole genome microarray relative to untreated control
Staphylococcus aureus [23] = assay: Decrease in capB gene expression in biofilm-associated cells of epidemic methicillin-resistant Staphylococcus aureus isolate 16 at 4 times MIC incubated for 1 hr by whole genome microarray relative to untreated control
Staphylococcus aureus [24] = assay: Increase in mnhG gene expression in biofilm-associated cells of epidemic methicillin-resistant Staphylococcus aureus isolate 16 at 4 times MIC incubated for 1 hr by whole genome microarray relative to untreated control
Staphylococcus aureus [25] = assay: Decrease in capG expression in biofilm-associated cells of epidemic methicillin-resistant Staphylococcus aureus isolate 16-1 at 4 times MIC incubated for 1 hr by RT-PCR relative to untreated control
Staphylococcus aureus [26] = assay: Increase in clfB expression in biofilm-associated cells of epidemic methicillin-resistant Staphylococcus aureus isolate 16-1 at 4 times MIC incubated for 1 hr by RT-PCR relative to untreated control
Staphylococcus aureus [27] = assay: Increase in ssaA expression in biofilm-associated cells of epidemic methicillin-resistant Staphylococcus aureus isolate 16-1 at 4 times MIC incubated for 1 hr by RT-PCR relative to untreated control
Staphylococcus aureus [28] = assay: Increase in cna expression in biofilm-associated cells of epidemic methicillin-resistant Staphylococcus aureus isolate 16-1 at 4 times MIC incubated for 1 hr by RT-PCR relative to untreated control
Staphylococcus aureus [29] = assay: Decrease in capC expression in biofilm-associated cells of epidemic methicillin-resistant Staphylococcus aureus isolate 15 at 4 times MIC incubated for 1 hr by RT-PCR relative to untreated control
Staphylococcus aureus [30] = assay: Increase in clfB gene expression in biofilm-associated cells of epidemic methicillin-resistant Staphylococcus aureus isolate 16 at 4 times MIC incubated for 1 hr by whole genome microarray relative to untreated control
Staphylococcus aureus [31] = assay: Decrease in tst gene expression in biofilm-associated cells of epidemic methicillin-resistant Staphylococcus aureus isolate 16 at 4 times MIC incubated for 1 hr by RT-PCR relative to untreated control
Staphylococcus aureus [32] = assay: Increase in fnbB gene expression in biofilm-associated cells of epidemic methicillin-resistant Staphylococcus aureus isolate 16 at 4 times MIC incubated for 1 hr by RT-PCR relative to untreated control
Staphylococcus aureus [33] = assay: Increase in isaA expression in biofilm-associated cells of epidemic methicillin-resistant Staphylococcus aureus isolate 16-1 at 4 times MIC incubated for 1 hr by RT-PCR relative to untreated control
Staphylococcus aureus [34] = assay: Increase in dltB gene expression in biofilm-associated cells of epidemic methicillin-resistant Staphylococcus aureus isolate 16 at 4 times MIC incubated for 1 hr by whole genome microarray relative to untreated control

SMILES: CN(C)c1cc(NC(=O)CNC(C)(C)C)c(O)c2c1C[C@H]1C[C@H]3[C@H](N(C)C)C(O)=C(C(N)=O)C(=O)[C@@]3(O)C(O)=C1C2=O [TIGECYCLINE]
- fold change (FC) (Staphylococcus aureus [1]): 2.44
- fold change (FC) (Staphylococcus aureus [2]): 5.16
- fold change (FC) (Staphylococcus aureus [3]): 6.29
- fold change (FC) (Staphylococcus aureus [4]): 1.53
- fold change (FC) (Staphylococcus aureus [5]): 2.37
- fold change (FC) (Staphylococcus aureus [6]): 6.99
- fold change (FC) (Staphylococcus aureus [7]): 3.27
- fold change (FC) (Staphylococcus aureus [8]): 5.59
- fold change (FC) (Staphylococcus aureus [9]): 2.46
- fold change (FC) (Staphylococcus aureus [10]): 12.06
- fold change (FC) (Staphylococcus aureus [11]): 1.09
- fold change (FC) (Staphylococcus aureus [12]): 2.39
- fold change (FC) (Staphylococcus aureus [13]): 2.49
- fold change (FC) (Staphylococcus aureus [14]): 3.03
- fold change (FC) (Staphylococcus aureus [15]): 12.75
- fold change (FC) (Staphylococcus aureus [16]): 3.91
- fold change (FC) (Staphylococcus aureus [17]): 1.09
- fold change (FC) (Staphylococcus aureus [18]): 1.14
- fold change (FC) (Staphylococcus aureus [19]): 3.14
- fold change (FC) (Staphylococcus aureus [20]): 2.26
- fold change (FC) (Staphylococcus aureus [21]): 2.11
- fold change (FC) (Staphylococcus aureus [22]): 2.66
- fold change (FC) (Staphylococcus aureus [23]): 2.08
- fold change (FC) (Staphylococcus aureus [24]): 2.85
- fold change (FC) (Staphylococcus aureus [25]): 1.01
- fold change (FC) (Staphylococcus aureus [26]): 7.5
- fold change (FC) (Staphylococcus aureus [27]): 2.04
- fold change (FC) (Staphylococcus aureus [28]): 3.42
- fold change (FC) (Staphylococcus aureus [29]): 1.64
- fold change (FC) (Staphylococcus aureus [30]): 4
- fold change (FC) (Staphylococcus aureus [31]): 1.51
- fold change (FC) (Staphylococcus aureus [32]): 3.03
- fold change (FC) (Staphylococcus aureus [33]): 7.68
- fold change (FC) (Staphylococcus aureus [34]): 2.02
